Test results from patent publication US20110190503A1, “Thiazolopyridin-2-yloxy-phenyl and thiazolopyrazin-2-yloxy-phenyl amines as modulators of leukotriene A4 hydrolase” (Janssen Pharmaceutical NV, priority 2008, published 2011).

Target: T1, recombinant human LTA4 hydrolase (rhLTA4H) (Homo sapiens, UniProt P09960)
T1 construct: made in house; host or cells: Spodoptera frugiperda (Sf-9) cells, recombinant baculovirus (pFastBac1)
T1 sequence (P09960 1-611): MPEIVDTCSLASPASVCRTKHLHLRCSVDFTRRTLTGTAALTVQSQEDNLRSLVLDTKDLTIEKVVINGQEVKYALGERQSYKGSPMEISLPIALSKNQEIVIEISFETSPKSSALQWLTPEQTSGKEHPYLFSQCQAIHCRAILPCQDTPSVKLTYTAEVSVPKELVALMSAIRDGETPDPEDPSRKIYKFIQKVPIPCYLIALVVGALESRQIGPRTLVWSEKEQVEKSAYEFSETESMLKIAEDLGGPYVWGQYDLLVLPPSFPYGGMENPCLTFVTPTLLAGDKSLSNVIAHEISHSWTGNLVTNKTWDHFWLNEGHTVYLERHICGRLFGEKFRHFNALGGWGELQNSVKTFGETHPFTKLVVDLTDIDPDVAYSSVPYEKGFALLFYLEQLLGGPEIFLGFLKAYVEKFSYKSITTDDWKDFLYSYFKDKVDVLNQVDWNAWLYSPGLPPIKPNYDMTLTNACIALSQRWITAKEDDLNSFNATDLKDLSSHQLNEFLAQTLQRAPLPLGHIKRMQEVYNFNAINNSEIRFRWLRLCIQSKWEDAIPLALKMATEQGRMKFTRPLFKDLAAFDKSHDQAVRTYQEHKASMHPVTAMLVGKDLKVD
Assay: Recombinant human LTA4 hydrolase assay for LTA4 hydrolase inhibitor activity
Type: biochemical
Details: not given
Outline: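 LTB4 formed from LTA4 substrate (free acid from the methyl ester) was quantified by enzyme immunoassay after a 30 min rt reaction. Enzyme was 10 ng Sf-9-expressed human LTA4 hydrolase, pre-incubated 10 min with compound.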

SMILES | IC50 [nM]
CC(=O)N[C@@H]1C[C@H]2CC[C@@H](C1)N2Cc1ccc(Oc2nc3ncccc3s2)cc1 [Example 109, meso-N-{(3-exo)-8-[4-([1,3]Thiazolo[4,5-b]pyridin-2-yloxy)benzyl]-8-azabicyclo[3.2.1]oct-3-yl}acetamide] | 0.97
CC(=O)N[C@H]1C[C@H]2CC[C@@H](C1)N2Cc1ccc(Oc2nc3ncccc3s2)cc1 [Example 116, meso-N-{(3-endo)-8-[4-([1,3]Thiazolo[4,5-b]pyridin-2-yloxy)benzyl]-8-azabicyclo[3.2.1]oct-3-yl}acetamide] | 1 ± 0.51

Same assay, conditions: rhLTA4H, LTA4 substrate, LTB4 by immunoassay; single determination or average; read-out: IC50

SMILES | IC50 [nM]
CC(=O)N1C[C@@H]2C[C@H]1CN2Cc1ccc(Oc2nc3ncc(C)cc3s2)cc1 [Example 121, 2-(4-{[(1S,4S)-5-Acetyl-2,5-diazabicyclo[2.2.1]hept-2-yl]methyl}phenoxy)-6-methyl[1,3]thiazolo[4,5-b]pyridine] | 38 ± 17
CC(=O)N1C[C@@H]2C[C@H]1CN2CCc1ccc(Oc2nc3ncccc3s2)cc1 [Example 75, 2-(4-{2-[(1S,4S)-5-Acetyl-2,5-diazabicyclo[2.2.1]hept-2-yl]ethyl}phenoxy)[1,3]thiazolo[4,5-b]pyridine] | 12
O=C1CCCN1C1CCN(CCOc2ccc(Oc3nc4ncccc4s3)cc2)CC1 [Example 32, 1-(1-{2-[4-([1,3]Thiazolo[4,5-b]pyridin-2-yloxy)phenoxy]ethyl}piperidin-4-yl)pyrrolidin-2-one] | 8.9
CC(=O)N1C[C@H]2CC[C@@H](C1)N2CCc1ccc(Oc2nc3ncccc3s2)cc1 [Example 55, meso-2-(4-{2-[3-Acetyl-3,8-diazabicyclo[3.2.1]oct-8-yl]ethyl}phenoxy)[1,3]thiazolo[4,5-b]pyridine] | 4.8
NC(=O)C1CCN(CCOc2ccc(Oc3nc4ncccc4s3)cc2)CC1 [Example 31, 1-{2-[4-([1,3]Thiazolo[4,5-b]pyridin-2-yloxy)phenoxy]ethyl}piperidine-4-carboxamide] | 29
CC(=O)N1CC2CN(CCc3ccc(Oc4nc5ncccc5s4)cc3)CC2C1 (stereo not drawn) [Example 73, 2-{4-[2-(5-Acetylhexahydropyrrolo[3,4-c]pyrrol-2(1H)-yl)ethyl]phenoxy}[1,3]thiazolo[4,5-b]pyridine] | 12
CC(=O)N1C[C@H]2C[C@@H]1CN2Cc1ccc(Oc2nc3ncccc3s2)cc1 [Example 265, 2-(4-{[(1R,4R)-5-Acetyl-2,5-diazabicyclo[2.2.1]hept-2-yl]methyl}phenoxy)[1,3]thiazolo[4,5-b]pyridine] | 11

More lines, now with the values ahead:

IC50 [nM] | SMILES
7.5 ± 4.6 | CC(=O)N1C[C@@H]2C[C@H]1CN2CCOc1ccc(Oc2nc3ncccc3s2)cc1 [Example 14, 2-(4-{2-[(1S,4S)-5-Acetyl-2,5-diazabicyclo[2.2.1]hept-2-yl]ethoxy}phenoxy)[1,3]thiazolo[4,5-b]pyridine]
6.3 | O=C1CCCN1C1CCN(Cc2ccc(Oc3nc4ncccc4s3)cc2)CC1 [Example 83, 1-{1-[4-([1,3]Thiazolo[4,5-b]pyridin-2-yloxy)benzyl]piperidin-4-yl}pyrrolidin-2-one]
3.9 | NC(=O)N1C[C@@H]2C[C@H]1CN2CCc1ccc(Oc2nc3ncccc3s2)cc1 [Example 45, (1S,4S)-5-{2-[4-([1,3]Thiazolo[4,5-b]pyridin-2-yloxy)phenyl]ethyl}-2,5-diazabicyclo[2.2.1]heptane-2-carboxamide]
3.5 | NC(=O)N1C[C@@H]2C[C@H]1CN2Cc1ccc(Oc2nc3ncccc3s2)cc1 [Example 106, (1S,4S)-5-[4-([1,3]Thiazolo[4,5-b]pyridin-2-yloxy)benzyl]-2,5-diazabicyclo[2.2.1]heptane-2-carboxamide]
3 | CC(=O)N1C[C@H]2C[C@@H]1CN2CCOc1ccc(Oc2nc3ncccc3s2)cc1 [Example 267, 2-(4-{2-[(1R,4R)-5-Acetyl-2,5-diazabicyclo[2.2.1]hept-2-yl]ethoxy}phenoxy)[1,3]thiazolo[4,5-b]pyridine]
2 | NC(=O)N1C[C@H]2C[C@@H]1CN2Cc1ccc(Oc2nc3ncccc3s2)cc1 [Example 266, (1R,4R)-5-[4-([1,3]Thiazolo[4,5-b]pyridin-2-yloxy)benzyl]-2,5-diazabicyclo[2.2.1]heptane-2-carboxamide]
